Holding throughout (format): in vivo
The subject of test [1] is Diabrotica balteata. Description: Diabrotica balteata spray test. To be noted: Diabrotica balteata, 168 h; 100 g/ha (=32 μg/cavity), wheat grains, after 7 days; read-out: efficacy. From the text: Diabrotica balteata—Spray Test Solvent: 78 parts by weight of acetone • • 1.5 parts by weight of dimethylformamide Emulsifier: alkylaryl polyglycol ether An appropriate active ingredient formulation is produced by dissolving 1 part by weight of active ingredient with the stated parts by weight of solvent and making the solution up to the desired concentration with water containing an emulsifier concentration of 1000 ppm. Further test concentrations are produced by diluting the formulation with emulsifier-containing water. Pre-swollen wheat grains (Triticum aestivum) are incubated in a multiwell plate filled with agar and a little water for one day (5 seed grains per cavity). The germinated wheat grains are sprayed with an active ingredient formulation of the desired concentration. Subsequently, each cavity is infected with 10-20 beetle larvae of Diabrotica balteata. After 7 days, efficacy in % is determined. 100% means that all wheat plants have grown as in the untreated, uninfected control; 0% means that no wheat plant has grown.

For test [2], the system named is Spodoptera frugiperda. The experiment in a line: Spodoptera frugiperda spray test (SPODFR), comparative. The settings on record: 168 h, cotton leaves, after 7 days; for Emax at 0.8 ppm: read-out: % Efficacy. From the text: (§1) Spodoptera frugtiperda—Spray Test (SPODFR) Solvent: 14 parts by weight of dimethylformamide Emulsifier: alkylaryl polyglycol ether An appropriate active ingredient formulation is produced by dissolving 1 part by weight of active ingredient with the stated parts by weight of solvent and making the solution up to the desired concentration with water containing an emulsifier concentration of 1000 ppm. Further test concentrations are produced by diluting the formulation with emulsifier-containing water. If the addition of ammonium salts or/and penetrants is required, these are each added in a concentration of 1000 ppm to the formulation solution. Cotton leaves (Gossypium hirsutum) are sprayed with an active ingredient formulation of the desired concentration and populated with caterpillars of the armyworm (Spodoptera frugiperda). After 7 days, the kill in % is determined. 100% means that all caterpillars have been killed; 0% means that none of the caterpillars have been killed.

The subject of another test is Heliothis armigera. The experiment in a line: Heliothis armigera spray test (HELIAR), comparative. To be noted: Helicoverpa armigera, 168 h, cotton plants, after 7 days.
Text: as §1, with “Heliothis Armigera Spray Test ([…])” for “Spodoptera frugtiperda—Spray Test (SPODFR)”, “Spray Test ([…]) Solvent: 14” for “frugtiperda—Spray Test (SPODFR) Solvent: 14”, “solution. Cotton plants (Gossypium hirsutum)” for “solution. Cotton leaves (Gossypium hirsutum)”, “desired concentration and, after drying, populated with” for “desired concentration and populated with”, “of the cotton bollworm (Heliothis armigera). After 7” for “of the armyworm (Spodoptera frugiperda). After 7”

Another test deals with Meloidogyne incognita. Description: Meloidogyne incognita test. The settings on record: Meloidogyne incognita, 336 h, lettuce, gall formation after 14 days, read-out: nematicidal efficacy. From the text:
Meloidogyne incognita Test Solvent: 125.0 parts by weight of acetone An appropriate active ingredient formulation is produced by mixing 1 part by weight of active ingredient with the stated amount of solvent and diluting the concentrate to the desired concentration with water. Vessels are filled with sand, active ingredient solution, an egg/larvae suspension of the southern root-knot nematode (Meloidogyne incognita) and lettuce seeds. The lettuce seeds germinate and the plants develop. The galls develop on the roots. After 14 days, the nematicidal efficacy in % is determined by the formation of galls. 100% means that no galls were found; 0% means that the number of galls on the treated plants corresponds to the untreated control.

In test [3] the test system is Spodoptera frugiperda. Description: Spodoptera frugiperda spray test (maize leaf discs). To be noted: Spodoptera frugiperda, foliar, 168 h, after 7 days, read-out: efficacy. From the text:
Spodoptera Frusiperda—Spray Test Solvent: 78.0 parts by weight of acetone • • 1.5 parts by weight of dimethylformamide Emulsifier: alkylaryl polyglycol ether An appropriate active ingredient formulation is produced by dissolving 1 part by weight of active ingredient with the stated parts by weight of solvent and making the solution up to the desired concentration with water containing an emulsifier concentration of 1000 ppm. Further test concentrations are produced by diluting the formulation with emulsifier-containing water. Leaf discs of maize (Zea mays) are sprayed with an active ingredient formulation of the desired concentration and, after drying, populated with caterpillars of the fall armyworm (Spodoptera frugiperda). After 7 days, efficacy in % is determined. 100% means that all the caterpillars have been killed; 0% means that no caterpillar has been killed.

A further test has as its system Plutella xylostella. Description: Plutella xylostella spray test (PLUTMA), comparative. To be noted: 168 h, cabbage leaves, after 7 days. From the text:
Plutella xylostella Spray Test (PLUTMA) Solvent: 14 parts by weight of dimethylformamide Emulsifier: alkylaryl polyglycol ether An appropriate active ingredient formulation is produced by dissolving 1 part by weight of active ingredient with the stated parts by weight of solvent and making the solution up to the desired concentration with water containing an emulsifier concentration of 1000 ppm. Further test concentrations are produced by diluting the formulation with emulsifier-containing water. If the addition of ammonium salts or/and penetrants is required, these are each added in a concentration of 1000 ppm to the formulation solution. Cabbage leaves (Brassica oleracea) are sprayed with an active ingredient formulation of the desired concentration and infected with larvae of the diamondback moth (Plutella xylostella). After 7 days, the kill in % is determined. 100% means that all caterpillars have been killed; 0% means that none of the caterpillars have been killed.

The next test concerns Nezara viridula. The experiment in a line: Nezara viridula spray test (infected barley plants sprayed). The settings on record: 100 g ai/ha, after 4 days. The source says:
Nezara viridula—Spray Test Solvent: 52.5 parts by weight of acetone • 7 parts by weight of dimethylformamide Emulsifier: alkylaryl polyglycol ether An appropriate active ingredient formulation is produced by dissolving 1 part by weight of active ingredient with the stated parts by weight of solvent and making the solution up to the desired concentration with water containing an emulsifier concentration of 1000 ppm. Further test concentrations are produced by diluting the formulation with emulsifier-containing water. If the addition of ammonium salts or/and penetrants is required, these are each added in a concentration of 1000 ppm to the formulation solution. Barley plants (Hordeum vulgare) infected with larvae of the Southern green shield bug (Nezara viridula) are sprayed with an active ingredient formulation of the desired concentration. After 4 days, efficacy in % is determined. 100% means that all of the shield bugs have been killed; 0% means that none of the shield bugs have been killed.

For a further test, the system named is Phaedon cochleariae. Description: Phaedon cochleariae spray test. To be noted: 100 g/ha, Chinese cabbage leaf discs, after 7 days. The source says: Phaedon cochleariae—Spray Test
Solvent: 78.0 parts by weight of acetone • • 1.5 parts by weight of dimethylformamide
Emulsifier: alkylaryl polyglycol ether
An appropriate active ingredient formulation is produced by dissolving 1 part by weight of active ingredient with the stated parts by weight of solvent and making the solution up to the desired concentration with water containing an emulsifier concentration of 1000 ppm. Further test concentrations are produced by diluting the formulation with emulsifier-containing water.
Discs of Chinese cabbage leaves (Brassica pekinensis) are sprayed with an active ingredient formulation of the desired concentration and, after drying, populated with larvae of the mustard beetle (Phaedon cochleariae).
After 7 days, efficacy in % is determined. 100% means that all the beetle larvae have been killed; 0% means that no beetle larvae have been killed.

The test system of test [4] is Diabrotica balteata. Description: Diabrotica balteata drench test. To be noted: 20 ppm, soil drench, maize, after 8 days. From the text: Diabrotica balteata—Drench Test Solvent: 7 parts by weight of dimethylformamide Emulsifier: 2 parts by weight of alkylaryl polyglycol ether An appropriate active ingredient formulation is produced by mixing 1 part by weight of active ingredient with the specified amounts of solvent and emulsifier, and diluting the concentrate to the desired concentration with water, it being necessary to take account of the volume of soil which is drenched. It should be ensured that a concentration of 40 ppm of emulsifier in the soil is not exceeded. Further test concentrations are produced by diluting with water. 5 […] (Zea mays) in each case are sown into pots filled with earth, and the next day the pots are watered with the active ingredient preparation of the desired concentration. After one day, about 25 L2 larvae of the banded cucumber beetle (Diabrotica balteata) are added. After 8 days, efficacy in % is determined. 100% means that all 5 plants have germinated and grown; 0% means that none of the plants has emerged.

Another test relates to Myzus persicae. Description: Myzus persicae oral test. To be noted: 4 ppm, after 5 days. The protocol:
Myzus persicae—Oral Test Solvent: 100 parts by weight of acetone An appropriate active ingredient formulation is produced by dissolving 1 part by weight of active ingredient with the specified parts by weight of solvent and making the solution up to the desired concentration with water. 50 μl of the active ingredient formulation is transferred into microtitre plates and made up to a final volume of 200 μl with 150 μl of IPL41 insect medium (33%+15% sugar). Subsequently, the plates are sealed with parafilm, which a mixed population of green peach aphids (Myzus persicae) within a second microtitre plate is able to puncture and imbibe the solution. After 5 days, efficacy in % is determined. 100% means that all the aphids have been killed; 0% means that no aphids have been killed.

The test system of the next test is Lucilia cuprina. Description: Lucilia cuprina test. The settings on record: 100 ppm, L1 larvae, after 2 days. As for the experimental part:
Lucilia cuprina Test Solvent: dimethyl sulfoxide An appropriate active ingredient formulation is produced by mixing 10 mg of active ingredient with 0.5 ml of dimethyl sulfoxide and diluting the concentrate with water to the desired concentration. About 20 L1 larvae of the Australian sheep blowfly (Lucilia cuprina) are transferred into a test vessel containing minced horsemeat and the active ingredient formulation of the desired concentration. After 2 days, the kill rate in % is determined relative to the untreated control. 100% means that all the larvae have been killed; 0% means that no larvae have been killed.

The test system of a further test is Ctenocephalides felis. Description: Ctenocephalides felis oral test. To be noted: 100 ppm, oral via cattle blood, after 2 days. The protocol: Ctenocephalides felis—Oral Test Solvent: dimethyl sulfoxide An appropriate active ingredient formulation is produced by mixing 10 mg of active ingredient with 0.5 ml of dimethyl sulfoxide. Dilution with citrated cattle blood gives the desired concentration. About 20 unfed adult cat fleas (Ctenocephalides felis) are placed into a chamber which is closed at the top and bottom with gauze. Onto the chamber is placed a metal cylinder with its bottom end closed with parafilm. The cylinder contains the blood/active ingredient formulation, which can be imbibed by the fleas through the parafilm membrane. The cylinder is heated to 37° C., while the flea chambers are kept at room temperature. After 2 days, the kill rate in % is determined relative to the untreated control. 100% means that all of the fleas have been killed; 0% means that none of the fleas have been killed.

Another test relates to Musca domestica. Description: Musca domestica test. The settings on record: 100 ppm, adult houseflies, after 2 days. The protocol:
Musca domestica Test Solvent: dimethyl sulfoxide An appropriate active ingredient formulation is produced by mixing 10 mg of active ingredient with 0.5 ml of dimethyl sulfoxide and diluting the concentrate with water to the desired concentration. Vessels containing a sponge treated with sugar solution and the desired concentration of active compound formulation are populated with 10 adult houseflies (Musca domestica). After 2 days, the kill rate in % is determined relative to the untreated control. 100% means that all of the flies have been killed; 0% means that none of the flies have been killed.

The source of these data is patent US20240294533A1, “2-(HET)ARYL-SUBSTITUTED CONDENSED HETEROCYCLE DERIVATIVES AS PEST CONTROL AGENTS” (Bayer Aktiengesellschaft, priority 2021, published 2024).

SMILES strings stand for the structures.

Regarding `CCS(=O)(=O)c1ccc(-n2ncn(-c3ccc(Br)cc3)c2=O)nc1-c1nc2cc(C(F)(F)C(F)(F)F)nnc2n1C` [Example I-14], the pest or weed control at 100 g/ha in the test on Diabrotica balteata [1] and with Spodoptera frugiperda [3] was 100% in each case. Also, in the test on Spodoptera frugiperda [2], the percent efficacy at tested dose at 0.8 ppm was found to be 100%. For the same molecule, in the test on Heliothis armigera (0.8 ppm), the percent efficacy (kill) at fixed dose at 0.8 ppm amounted to 100%. The percent efficacy (kill) at fixed dose at 4 ppm in the test with Heliothis armigera (4 ppm) stood at 100%. For the same molecule, the pest or weed control at 20 ppm in the test on Meloidogyne incognita is 100%. The efficacy at 0.8 ppm in the test with Plutella xylostella was 100%.

As for `CCS(=O)(=O)c1ccc(-n2ncn(-c3ccc(Br)cc3)c2=O)nc1-c1nc2cc(C(F)(F)F)ccc2n1C` [I-16 known from WO 2017/055185, reference compound], the Emax at 0.8 ppm with Spodoptera frugiperda [2] came out at 10%; in the test with Heliothis armigera (0.8 ppm, read-out: % Efficacy), 20%. Moreover, the Emax at 4 ppm in the test on Heliothis armigera (4 ppm, read-out: % Efficacy) was found to be 60%. Also, in the test on Plutella xylostella, the efficacy at 0.8 ppm amounted to 85%.

Turning to `Cn1c(-c2nc(-n3ncn(-c4ccc(Cl)cc4)c3=O)ccc2CS(C)(=O)=O)nc2cc(C(F)(F)F)cnc21` [I-33 known from WO 2017/055185, reference compound], the Emax at 0.8 ppm in the test with Spodoptera frugiperda [2] was determined as 0%. Besides, the efficacy at 0.16 ppm in the test on Plutella xylostella (0.16 ppm) came out at 15%.

In the case of `CCS(=O)(=O)c1ccc(-n2ncn(-c3ccc(Cl)cc3)c2=O)nc1-c1nc2cc(C(F)(F)C(F)(F)F)nnc2n1C` [Example I-22], the efficacy in the test on Nezara viridula amounted to 90%; with Phaedon cochleariae, 100%; in the test with Diabrotica balteata [4], 100%; with Myzus persicae, 100%. In addition, the pest or weed control at 100 g/ha in the test with Spodoptera frugiperda [3] amounted to 100%. For the same molecule, the “efficacy (kill rate)” value in the test on Lucilia cuprina, with Ctenocephalides felis and in the test on Musca domestica was 100% throughout.
